Results from patent US6040149A, “Assay for identifying agents which act on the ceramide-activated protein kinase, kinase suppressor of ras, and methods of using said agents” (priority 1997, dated 2000).

Biological target: T1, KSR (Mus musculus, UniProt Q61097)
T1 sequence (Q61097 1-873): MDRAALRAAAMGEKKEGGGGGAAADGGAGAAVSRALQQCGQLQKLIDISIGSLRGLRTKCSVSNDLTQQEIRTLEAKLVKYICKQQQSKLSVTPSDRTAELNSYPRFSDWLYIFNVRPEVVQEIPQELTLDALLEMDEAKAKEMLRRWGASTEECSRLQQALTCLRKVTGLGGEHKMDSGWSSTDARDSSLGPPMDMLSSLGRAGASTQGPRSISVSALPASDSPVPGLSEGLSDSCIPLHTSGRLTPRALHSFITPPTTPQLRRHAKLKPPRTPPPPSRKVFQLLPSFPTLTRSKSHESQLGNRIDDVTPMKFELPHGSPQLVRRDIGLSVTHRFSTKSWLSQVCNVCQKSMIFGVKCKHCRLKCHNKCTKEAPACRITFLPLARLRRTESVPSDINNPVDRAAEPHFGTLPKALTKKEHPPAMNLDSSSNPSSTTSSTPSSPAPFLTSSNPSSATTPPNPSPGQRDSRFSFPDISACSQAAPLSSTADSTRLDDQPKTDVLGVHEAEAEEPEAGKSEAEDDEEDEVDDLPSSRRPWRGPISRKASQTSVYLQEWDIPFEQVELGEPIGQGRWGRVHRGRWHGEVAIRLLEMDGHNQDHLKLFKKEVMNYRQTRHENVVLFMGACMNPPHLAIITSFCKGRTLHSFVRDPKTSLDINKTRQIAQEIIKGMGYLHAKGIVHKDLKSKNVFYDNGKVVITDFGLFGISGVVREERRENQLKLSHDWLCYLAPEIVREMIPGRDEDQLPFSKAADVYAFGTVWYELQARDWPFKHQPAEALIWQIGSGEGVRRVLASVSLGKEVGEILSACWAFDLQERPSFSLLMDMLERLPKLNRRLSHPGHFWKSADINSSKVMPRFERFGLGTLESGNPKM
Assay: KSR autophosphorylation after treatment of COS-7 cells expressing KSR
Type: cell-based, mouse (KSR expressed in COS-7 cells)
Details: TNFα 10 nM
Protocol: FIG. 23A--COS-7 cells were transfected as in FIG. 22A and placed in serum-free medium. After 4 hours, cells were stimulated for 10 min with the ceramide analog, C2-ceramide (Biomol), at the concentrations indicated. Cells were lysed with NP-40 lysis buffer, and Flag-tagged KSR (0.8 mg protein for each point) was immunoprecipitated and assayed for autophosphorylation activity as described in Experimental Procedures. The autoradiogram was exposed for 1 hour. KSR is expressed at similar levels in each sample as monitored by Western blot (data not shown). Data represent one of three similar experiments.
COS-7 cells expressing Flag-tagged KSR were stimulated with 10 nM TNFα for the times indicated and lysed with NP-40 buffer as in FIG. 2A. […] The autoradiogram was exposed for 1 hour. Data represent one of three similar experiments.
KSR was immunoprecipitated as above from 0.8 mg NP-40 lysate protein with 40 μl agarose-conjugated anti-Flag antibody at 4° C. for 4 hrs or overnight. […] The reaction was stopped by addition of Laemmli sample buffer. Samples were resolved by 7.5% sodium dodecyl sulfate-polyacrylamide gel electrophoresis (SDS-PAGE) and autoradiographed.

Substance: TNF-α
- KSR autophosphorylating activity: time-dependent enhancement
- time to maximal effect (autophosphorylation, Raf-1 phosphorylation and activation): ≤ 20 min
